According to patent publication US20210017492A1, “USE OF RETINOIC ACID IN T-CELL MANUFACTURING” (Immatics US, Inc., priority 2019, published 2021):
“Also recorded” adds a separate entry of the source. Where two headings read alike, the source gives them in different places.

Columns and labels:
[1] = test system: T cells
Procedure: On Day 3, cells were fed with media containing IL-7 and IL-15. On Day 6, cells were harvested and about half of cells were cryopreserved. The other half of cells were transferred to G-Rex 6-well plate, to which 10 ml of fresh medium was added without RA (Group 1) or with RA (100 nM/ml) (Group 2). Some Day 6 cells were analysed by flow cytometry to assess transduction efficiency. On Day 8, remaining cells were harvested and cryopreserved.

[2] = test system: T cells; assay: Flow cytometry staining of Day 6 cells for expression of the transduced TCR (PRAME dextramer); assay type: cell-based, human
Procedure: Flow cytometry staining was performed on Day 6 cells to assess the expression of TCR.

[3] = Day 6 or Day 8 cells untreated or treated with RA, data not shown
[4] = Day 6 or Day 8 cells, Wilcoxon test
[5] = Day 6 or Day 8 cells, data not shown
[6] = RA-treated Day 6 T cell products
[7] = RA-treated Day 8 T cell products

SMILES: CC1=C(/C=C/C(C)=C/C=C/C(C)=C/C(=O)O)C(C)(C)CCC1 [RA, all-trans-retinoic acid]
- CD38 expression on RA-treated CD8+ T cells [1]: expressed on all RA-treated CD8+ T cells
- RA-treated CD103+ cells that also express CCR9 [1]: almost all
- effect of RA treatment on CD45RA+ CD3+CD8+ T cells ([1]; 1-way ANOVA on 3 data sets): significantly decreases
- effect of RA treatment on transitional CD3+CD8+ T cells ([1]; 1-way ANOVA on 3 data sets): significantly decreases
- effect of RA treatment on CD45RO+ T cells ([1]; 1-way ANOVA on 3 data sets, CD3+CD8+ T cells): significantly increases
- CD25+ cells, with vs without RA treatment ([1]; Day 6 or Day 8 T cell products, Paired t-test): does not impact; also recorded: no significant difference
- CD73, untreated or treated with RA ([1]; Day 6 or Day 8 cells): no difference was observed between Day 6 or Day 8 cells
- CD95, untreated or treated with RA ([1]; Day 6 or Day 8 cells): no difference was observed between Day 6 or Day 8 cells
- CD73 positive cells [1, 3]: untreated or treated with RA (<5% positive, data not shown)
- CD95 positive cells [1, 3]: untreated or treated with RA (>90% positive, data not shown)
- CD27+ cells, treated vs untreated [1, 4]: no significant difference; also recorded: No difference was seen between treated and untreated and
- CD28+ cells, treated vs untreated [1, 4]: no significant difference; also recorded: No difference was seen between treated and untreated and
- CD39+ cells, untreated or treated with RA [1, 4]: no significant difference; also recorded: no difference was observed between Day 6 or Day 8 cells
- CXCR4+ cells, untreated or treated with RA [1, 4]: no significant difference; also recorded: no difference was observed between Day 6 or Day 8 cells
- HLA-DR+ cells, untreated or treated with RA [1, 4]: no significant difference; also recorded: no difference was observed between Day 6 or Day 8 cells
- CD56 (NK-related marker), treated vs untreated [1, 5]: No difference was seen between treated and untreated and
- CD94 (NK-related marker), treated vs untreated [1, 5]: No difference was seen between treated and untreated and
- CD314 (NK-related marker), treated vs untreated [1, 5]: No difference was seen between treated and untreated and
- effect of RA treatment on Tcm ([1]; FIG. 10): increases
- effect of RA treatment on Tem ([1]; FIG. 10): little effect
- effect of RA treatment on Temra ([1]; FIG. 10): little effect
- effect of RA treatment on naïve/Tscm ([1]; FIG. 10): significantly decreases
- CD103 expression, with vs without RA treatment ([1]; FIG. 19B): does not significantly affect
- CD45RO+ T cells [1, 6]: 80.3%
- CD62L+ T cells [1, 6]: 7.74%
- naïve/Tscm (CD45RA+CD197+) [1, 6]: 6.07%
- CD45RO+ T cells [1, 7]: 84.5%
- CD62L+ T cells vs without RA treatment [1, 7]: significantly fewer
- naïve/Tscm (CD45RA+CD197+) [1, 7]: 4.25%
- CCR9+ cells, with vs without RA treatment ([1]; Wilcoxon test, p=0.0313): significantly increases
- CD25+ cells, Day 8 RA-treated vs Day 6 T cell products without RA treatment ([1]; Wilcoxon test, p=0.0313): significantly fewer
- CD38+ cells, with vs without RA treatment ([1]; Wilcoxon test, p=0.0313): significantly increases
- CD38 MFI (Mean Fluorescence Intensity) in CD8+ T cells vs without RA treatment ([1]; Wilcoxon test, p=0.0313): higher
- CD49a+ cells, with vs without RA treatment ([1]; Wilcoxon test, p=0.0313): significantly increases
- CD69+ cells, with vs without RA treatment ([1]; Wilcoxon test, p=0.0313): significantly increases
- ICOS+ cells, with vs without RA treatment ([1]; Wilcoxon test, p=0.0313): lower levels; also recorded: significantly decreases
- α4β7+ cells, with vs without RA treatment ([1]; Wilcoxon test, p=0.0313, α4+ and β7+ detected separately): significantly increases
- CD197+ cells ([1]; between Day 6 and Day 8 T cell products with or without RA treatment): no significant difference
- CCR6, effect of RA treatment ([1]; data not shown): to low frequency and no differences (data not shown)
- expression of CCR9 on DEX+CD3+CD8+α4β7+ cells vs without RA treatment ([1]; p=0.0313): significantly higher
- α4β7 expression in CD3+CD8+DEX+ cells vs without RA treatment ([1]; p=0.0313): significantly higher
- α4β7+ cells present in CD3+CD8+DEX+ cells ([1]; with RA treatment, CD49d (α4) and β7): 54.6%
- % CD3+ of live lymphocytes, with vs without RA ([2]; Donor 1): comparable
- % CD8+ of live CD3+ cell, with vs without RA ([2]; Donor 1): comparable
- % of CD8+ cells expressing the transduced TCR ([2]; Donor 1, with RA treatment (ATRA 100 nM/ml)): 32.9%
- % CD3+ of live lymphocytes, with vs without RA ([2]; Donor 2): comparable
- % CD8+ of live CD3+ cell, with vs without RA ([2]; Donor 2): comparable
- % of CD8+ cells expressing the transduced TCR ([2]; Donor 2, with RA treatment (ATRA 100 nM/ml)): 13.3%
